Target: T1, PDE4B (human recombinant) (Homo sapiens, UniProt Q07343)
T1 construct: made in house
Experiment: Inhibition of PDE4B activity: radioactive SPA or IMAP Fluorescence Polarisation (FP) assay
Type: biochemical
Settings: PDE4B inhibitory activity, one reading or average of ca. 2-6 readings, read-out: PDE4B pIC50 (± about 0.5) (converted)
Description: Human recombinant PDE4B, in particular the 2B splice variant thereof (HSPDE4B2B), is disclosed in WO 94/20079 and also M. M. McLaughlin et al., “A low Km, rolipram-sensitive, cAMP-specific phosphodiesterase from human brain: cloning and expression of cDNA, biochemical characterisation of recombinant protein, and tissue distribution of mRNA”, J. Biol. Chem., 1993, 268, 6470-6476. For example, in Example 1 of WO 94/20079, human recombinant PDE4B is described as being expressed in the PDE-deficient yeast Saccharomyces cerevisiae strain GL62, e.g. after induction by addition of 150 uM CuSO4, and 100,000×g supernatant fractions of yeast cell lysates are described for use in the harvesting of PDE4B enzyme.
The ability of compounds to inhibit catalytic activity at PDE4B or 4D (human recombinant), PDE3 (from bovine aorta), PDE5 (human recombinant) or PDE6 (from bovine retina) was determined by Scintillation Proximity Assay (SPA) in 96-well format. Test compounds (preferably as a solution in DMSO, e.g. 0.5 to 1 microlitre (ul) volume) were preincubated at ambient temperature (room temperature, e.g. 19-23° C.) in Wallac Isoplates (code 1450-514) with PDE enzyme in 50 mM Tris-HCl buffer pH 7.5, 8.3 mM MgCl2, 1.7 mM EGTA, 0.05% (w/v) bovine serum albumin for 10-30 minutes (usually 30 minutes). The enzyme concentration was adjusted so that no more than 20% hydrolysis of the substrate defined below occurred in control wells without compound, during the incubation. For the PDE3, PDE4B and PDE4D assays, [5′,8-^3H]Adenosine 3′,5′-cyclic phosphate (Amersham Pharmacia Biotech, code TRK.559; or Amersham Biosciences UK Ltd, Pollards Wood, Chalfont St Giles, Buckinghamshire HP8 4SP, UK) was added to give 0.05 uCi per well and ˜10 nM final concentration. For the PDE5 and PDE6 assays, [8-^3H]Guanosine 3′,5′-cyclic phosphate (Amersham Pharmacia Biotech, code TRK.392) was added to give 0.05 uCi per well and ˜36 nM final concentration. Plates, e.g. containing approx. 100 ul volume of assay mixture, were mixed on an orbital shaker for 5 minutes and incubated at ambient temperature for 1 hour. Phosphodiesterase SPA beads (Amersham Pharmacia Biotech, code RPNQ 0150) were added ([…] per well) to terminate the assay. Plates were sealed and shaken and allowed to stand at ambient temperature for 35 minutes to 1 hour (preferably 35 minutes) to allow the beads to settle. Bound radioactive product was measured using a WALLAC TRILUX 1450 Microbeta scintillation counter. For inhibition curves, 10 concentrations (1.5 nM-30 uM) of each compound were assayed. Curves were analysed using ActivityBase and XLfit (ID. Business Solutions Limited, 2 Ocean Court, Surrey Research Park, Guildford, Surrey GU2 7QB, United Kindgom) Results were expressed as pIC50 values.
The ability of compounds to inhibit catalytic activity at PDE4B (human recombinant) or PDE4D (human recombinant) was determined by IMAP Fluorescence Polarisation ([…]) assay (IMAP Explorer kit, available from Molecular Devices Corporation, Sunnydale, Calif., USA; Molecular Devices code: R^8062) in 384-well format. The IMAP FP assay is able to measure PDE activity in an homogenous, non-radioactive assay format. The FP assay uses the ability of immobilised trivalent metal cations, coated onto nanoparticles (tiny beads), to bind the phosphate group of Fl-AMP that is produced on the hydrolysis of fluorescein-labelled (Fl) cyclic adenosine mono-phosphate (Fl-cAMP) to the non-cyclic Fl-AMP form. […] Binding of Fl-AMP product to the beads (coated with the immobilised trivalent cations) slows the rotation of the bound Fl-AMP and leads to an increase in the fluorescence polarisation ratio of parallel to perpendicular light. Inhibition of the PDE reduces/inhibits this signal increase. […]

T1 sequence (Q07343 1-564 isoform Q07343-2): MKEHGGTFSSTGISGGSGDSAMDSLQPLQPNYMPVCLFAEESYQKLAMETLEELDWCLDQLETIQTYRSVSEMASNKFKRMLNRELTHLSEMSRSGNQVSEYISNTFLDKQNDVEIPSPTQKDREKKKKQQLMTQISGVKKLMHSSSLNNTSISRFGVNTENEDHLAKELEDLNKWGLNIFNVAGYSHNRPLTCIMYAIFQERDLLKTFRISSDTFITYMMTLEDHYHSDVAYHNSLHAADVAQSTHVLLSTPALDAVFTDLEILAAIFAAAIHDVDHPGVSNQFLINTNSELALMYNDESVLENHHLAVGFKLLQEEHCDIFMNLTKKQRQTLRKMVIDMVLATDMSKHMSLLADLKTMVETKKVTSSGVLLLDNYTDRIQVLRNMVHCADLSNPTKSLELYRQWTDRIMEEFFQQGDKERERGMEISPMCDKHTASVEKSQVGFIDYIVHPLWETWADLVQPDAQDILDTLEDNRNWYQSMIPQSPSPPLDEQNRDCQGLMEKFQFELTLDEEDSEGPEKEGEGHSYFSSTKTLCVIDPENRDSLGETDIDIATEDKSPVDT

SMILES	IC50
CCOC(=O)c1cnc2c(cnn2CC)c1NC1CCSC1 (racemic) [Example 11, Ethyl 1-ethyl-4-(tetrahydrothien-3-ylamino)-1H-pyrazolo[3,4-b]pyridine-5-carboxylate]	39.8 nM
CCOC(=O)c1cnc2c(cnn2CC)c1NC1CCCC1 [Example 1, Ethyl 4-(cyolopentylamino)-1-ethyl-1H-pyrazolo[3,4-b]pyridine-5-carboxylate]	12.6 to 100 nM
CCOC(=O)c1cnc2c(cnn2CC)c1NC1CCCCC1 [Example 2, Ethyl 4-(cyclohexylamino)-1-ethyl-1H-pyrazolo[3,4-b]pyridine-5-carboxylate]	10 nM
CCOC(=O)c1cnc2c(cnn2CC)c1NC1CCOCC1 [Example 3, Ethyl 1-ethyl-4-(tetrahydro-2H-pyran-4-ylamino)-1H-pyrazolo[3,4-b]pyridine-5-carboxylate]	15.8 nM
CCOC(=O)c1cnc2c(cnn2C)c1NC1CCCC1 [Example 6]	251 nM
CCn1ncc2c(NC3CCCCC3)c(C(=O)NCc3ccncc3)cnc21 [Example 32, 4-(Cyolohexylamino)-1-ethyl-N-(pyridin-4-ylmethyl)-1H-pyrazolo[3,4-b]pyridine-5-carboxamide]	20 nM
CCn1ncc2c(NC3CCOCC3)c(C(N)=O)cnc21 [Example 36, 1-Ethyl-4-(tetrahydro-2H-pyran-4-ylamino)-1H-pyrazolo[3,4-b]pyridine-5-carboxamide]	12.6 to 100 nM
CCn1ncc2c(NC3CCCC3)c(C(=O)NCc3ccccc3)cnc21 [Example 39, N-Benzyl-4-(cyclopentylamino)-1-ethyl-1H-pyrazolo[3,4-b]pyridine-5-carboxamide]	12.6 to 100 nM
CCn1ncc2c(NC3CCCCC3)c(C(=O)NCc3ccccc3)cnc21 [Example 40, N-Benzyl-4-(cyclohexylamino)-1-ethyl-1H-pyrazolo[3,4-b]pyridine-5-carboxamide]	5.01 nM
CCn1ncc2c(NC3CCN(C(C)=O)CC3)c(C(=O)NCc3ccccc3)cnc21 [Example 41, 4-[(1-Acetylpiperidin-4-yl)amino]-N-benzyl-1-ethyl-1H-pyrazolo[3,4-b]pyridine-5-carboxamide]	12.6 to 100 nM
CCC(CC)CNC(=O)c1cnc2c(cnn2CC)c1NC1CCCC1 [Example 42, 4-(Cyclopentylamino)-1-ethyl-N-(2-ethylbutyl)-1H-pyrazolo[3,4-b]pyridine-5-carboxamide]	12.6 to 100 nM
CCC(CC)CNC(=O)c1cnc2c(cnn2CC)c1NC1CCCCC1 [Example 43, 4-(Cyclohexylamino)-1-ethyl-N-(2-ethylbutyl)-1H-pyrazolo[3,4-b]pyridine-5-carboxamide]	12.6 to 100 nM
CCC(CC)CNC(=O)c1cnc2c(cnn2CC)c1NC1CCOCC1 [Example 44, 1-Ethyl-N-(2-ethylbutyl)-4-(tetrahydro-2H-pyran-4-ylamino)-1H-pyrazolo[3,4-b]pyridine-5-carboxamide]	12.6 to 100 nM
CCn1ncc2c(NC3CCCC3)c(C(=O)Nc3ccc(F)cc3)cnc21 [Example 47, 4-(Cyclopentylamino)-1-ethyl-N-(4-fluorophenyl)-1H-pyrazolo[3,4-b]pyridine-5-carboxamide]	12.6 to 100 nM
CCn1ncc2c(NC3CCCCC3)c(C(=O)Nc3ccc(F)cc3)cnc21 [Example 48, 4-(Cyclohexylamino)-1-ethyl-N-(4-fluorophenyl)-1H-pyrazolo[3,4-b]pyridine-5-carboxamide]	12.6 to 100 nM
Cn1ncc2c(NC3CCOCC3)c(C(=O)NCc3ccccc3)cnc21 [Example 63, N-Benzyl-1-methyl-4-(tetrahydro-2H-pyran-4-ylamino)-1H-pyrazolo[3,4-b]pyridine-5-carboxamide]	126 nM
CCn1ncc2c(NC3CCOCC3)c(C(=O)NCc3ccc(S(C)(=O)=O)cc3)cnc21 [Example 100, 1-Ethyl-N-[4-(methylsulfonyl)benzyl]-4-(tetrahydro-2H-pyran-4-ylamino)-1H-pyrazolo[3,4-b]pyridine-5-carboxamide]	0.1 to 6.31 nM
CCn1ncc2c(NC3CCOCC3)c(C(=O)NCc3nccs3)cnc21 [Example 109, 1-Ethyl-4-(tetrahydro-2H-pyran-4-ylamino)-N-(1,3-thiazol-2-ylmethyl)-1H-pyrazolo[3,4-b]pyridine-5-carboxamide]	12.6 to 100 nM
CCn1ncc2c(NC3CCOCC3)c(C(=O)NC3Cc4ccccc4C3)cnc21 [Example 165, N-(2,3-Dihydro-1H-inden-2-yl)-1-ethyl-4-(tetrahydro-2H-pyran-4-ylamino)-1H-pyrazolo[3,4-b]pyridine-5-carboxamide]	0.1 to 6.31 nM
CCn1ncc2c(NC3CCOCC3)c(C(=O)NCc3ccc(OC)c(OC)c3)cnc21 [Example 167, N-(3,4-Dimethoxybenzyl)-1-ethyl-4-(tetrahydro-2H-pyran-4-ylamino)-1H-pyrazolo[3,4-b)pyridine-5-carboxamide]	0.1 to 6.31 nM
CCn1ncc2c(NC3CCOCC3)c(C(=O)NCc3cnn(C)c3)cnc21 [Example 178, 1-Ethyl-N-[(1-methyl-1H-pyrazo1-4-yl)methyl]-4-(tetrahydro-2H-pyran-4-ylamino)-1H-pyrazolo[3,4-b]pyridine-5-carboxamide]	12.6 to 100 nM
CCCn1ncc2c(NC3CCOCC3)c(C(=O)NCc3ccc(S(C)(=O)=O)cc3)cnc21 [Example 187, N-[4-(Methylsulfonyl)benzyl]-1-n-propyl-4-(tetrahydro-2H-pyran-4-ylamino)-1H-pyrazolo[3,4-b]pyridine-5-carboxamide]	12.6 to 100 nM
CCn1ncc2c(NC3CCOCC3)c(C(=O)NCc3ccccc3)c(C)nc21 [Example 196, N-Benzyl-1-ethyl-6-methyl-4-(tetrahydro-2H-pyran-4-ylamino)-1H-pyrazolo[3,4-b]pyridine-5-carboxamide]	12.6 nM
CCn1ncc2c(NC3CCCC(O)C3)c(C(=O)NCc3ccccc3)cnc21 (stereo not drawn) [Example 198, N-Benzyl-1-ethyl-4-[(3-hydroxycyclohexyl)amino]-1H-pyrazolo[3,4-b]pyridine-5-carboxamide]	3.16 nM
CCn1ncc2c(NC3CCC(=O)CC3)c(C(=O)NCc3ccccc3)cnc21 [Example 201, N-Benzyl-1-ethyl-4-[(4-oxocyclohexyl)amino]-1H-pyrazolo[3,4-b]pyridine-5-carboxamide]	0.1 to 6.31 nM
CCn1ncc2c(NC3CCC(=O)CC3)c(C(=O)NCc3ccc(C)cc3C)cnc21 [Example 260, N-[(2,4-dimethylphenyl)methyl]-1-ethyl-4-[(4-oxocyclohexyl)amino]-1H-pyrazolo[3,4-b]pyridine-5-carboxamide]	0.1 to 6.31 nM
CCn1ncc2c(NC3CCC(=O)CC3)c(C(=O)NCc3ccc(C)c(C)c3)cnc21 [Example 261, N-[(3,4-Dimethylphenyl)methyl]-1-ethyl-4-[(4-oxocyclohexyl)amino]-1H-pyrazolo[3,4-b]pyridine-5-carboxamide]	0.1 to 6.31 nM
CCn1ncc2c(NC3CCC(=O)CC3)c(C(=O)NCc3ccc(OC)cc3)cnc21 [Example 263]	0.1 to 6.31 nM
CCn1ncc2c(NC3CCC(=O)CC3)c(C(=O)NCc3ccc(N(C)C)cc3)cnc21 [Example 265, N-{[4-(Dimethylamino)phenyl]methyl}-1-ethyl-4-[(4-oxocyclohexyl)amino]-1H-pyrazolo[3,4-b]pyridine-5-carboxamide]	0.1 to 6.31 nM
CCn1ncc2c(NC3CCC(=O)CC3)c(C(=O)NCc3ccc(OC(F)F)cc3)cnc21 [Example 266, N-({4-[(Difluoromethyl)oxy]phenyl}methyl)-1-ethyl-4-[(4-oxocyclohexyl)amino]-1H-pyrazolo[3,4-b]pyridine-5-carboxamide]	0.1 to 6.31 nM

— US20060089375A1, “Pyrazolo[3,4-b] pyridine compounds, and their use as phosphodiesterase inhibitors” (priority 2002, published 2006)
